From patent US20230183712A1, “METHODS FOR E[…] ACID AMMONIA LYASE ENZYMES AND ENZYMES THEREBY OBTAINED” (priority 2020, published 2023)

Assays:
[1] = target: T1, Anabaena variabilis phenylalanine ammonia-lyase (DM-rAvPAL/AvPAL*; C503S and C565S, SEQ ID NO:2) variant L4P/G218S (Trichormus variabilis, UniProt Q3M5Z3, C503S/C565S/G218S/L4P); assay: Enzyme kinetics: production of tCA from phe (Michaelis-Menten), mutant L4P/G218S; format: biochemical; settings: relative to parental AvPAL*; phe 35 μM to 17.5 mM, PBS pH 7.4, 37° C.; FIG. 4a
T1 construct: His-tag (N); made in house; host or cells: E. coli MG1655 rph+
T1 sequence (Q3M5Z3 whole entry L4P/G218S/C503S/C565S, looked up): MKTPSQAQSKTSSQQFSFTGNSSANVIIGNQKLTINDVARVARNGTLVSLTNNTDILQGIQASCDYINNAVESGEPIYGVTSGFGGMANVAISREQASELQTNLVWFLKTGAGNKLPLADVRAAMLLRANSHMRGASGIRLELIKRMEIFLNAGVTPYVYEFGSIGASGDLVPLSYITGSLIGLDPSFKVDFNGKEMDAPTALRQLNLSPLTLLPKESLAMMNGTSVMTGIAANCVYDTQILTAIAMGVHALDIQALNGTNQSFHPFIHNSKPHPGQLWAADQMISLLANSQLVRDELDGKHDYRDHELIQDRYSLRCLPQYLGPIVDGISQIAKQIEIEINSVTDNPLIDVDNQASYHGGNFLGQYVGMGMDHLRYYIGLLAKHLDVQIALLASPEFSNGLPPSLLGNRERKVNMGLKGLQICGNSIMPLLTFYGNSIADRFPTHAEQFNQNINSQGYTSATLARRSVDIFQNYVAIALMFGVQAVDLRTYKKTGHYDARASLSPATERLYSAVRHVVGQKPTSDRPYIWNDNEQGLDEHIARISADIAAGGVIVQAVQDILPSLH
Description: (§1) Enzyme activity assays. The activity of all AvPAL constructs was measured by production of tCA over time. Cultures were sonicated on ice using a Sonifier SFX 150 (Branson Ultrasonics, Danbury, Conn.) (2 s on; 10 s off; 4 min; 55%), and debris was separated from the lysate by centrifuging at 10,000×g for 10 min. Ten microliters of lysate were then mixed with 190 μL of pre-warmed 50 mM phe (Tokyo Chemical Industry, Portland, Oreg.) in phosphate buffered saline (PBS) (137 mM NaCl, 2.7 mM KCl, 10 mM Na2HPO4, 2 mM KH2PO4, pH 7.4) in a 96-well F-bottom UVStar (Greiner Bio-One, Kremsmünster, Austria) microtiter plate. Absorbance at 290 nm was measured every 30 s at 37° C. using a SpectraMax M3 (Molecular Devices) plate reader.
(§2) Each construct included a N-term His-tag used for immobilized metal affinity chromatography (IMAC) purification. Briefly, overnight cell cultures were sonicated in 3 mL Equilibration buffer (300 mM NaCl, 50 mM NaH2PO4, 10 mM imidazole, 15% (w/v) glycerol, pH 8.0). The lysate was loaded onto a prepared column with 2 mL TALON Metal Affinity Resin (Clontech Laboratories, Inc., Mountain View, Calif.). […] Protein concentration was measured by Bradford method using bovine serum albumin (BSA) as the standard.
(§3) Enzyme kinetics. […] The activity of 0.1 μg of protein was measured by the production of tCA over 10 min by recording the absorbance of the reaction mix at 290 nm. […]

[2] = target: T2, Anabaena variabilis phenylalanine ammonia-lyase (DM-rAvPAL/AvPAL*; C503S and C565S, SEQ ID NO:2) variant M222L (Trichormus variabilis, UniProt Q3M5Z3, C503S/C565S/M222L); assay: Enzyme kinetics: production of tCA from phe (Michaelis-Menten), mutant M222L; format: biochemical; settings: PBS pH 7.4, 37° C.
T2 construct: His-tag (N); made in house; host or cells: E. coli MG1655 rph+
T2 sequence (Q3M5Z3 whole entry M222L/C503S/C565S, looked up): as the sequence (Q3M5Z3 whole entry L4P/G218S/C503S/C565S, looked up) above, with P4L, S218G, M222L counted along it
Description: as §1, §2, §3

E. coli = assay: Growth of E. coli in media supplemented with tCA; format: cell-based, Escherichia coli; settings: MM^full,opt, 1.5 mM tCA
Description: Microbial strains, plasmids, and growth conditions. All Escherichia coli strains were cultured in lysogeny broth (LB) (VWR International, Randor, Pa.) at 37° C. with rotary shaking at 250 rpm. All media was solidified using 1.5% (w/v) agar (Teknova Inc, Hollister, Calif.). Minimal media (MM) conditions are described in the “Optimization of growth-coupled enrichment” section below. E. coli DH5a was used as a host for the construction of the expression vectors and cultured as above only supplemented with chloramphenicol (25 μg/mL) (RPI Corp). Initial expression in MM was performed in E. coli MG1655(DE3)^ΔendA,ΔrecA and later moved to E. coli MG1655^rph+ for final experiments.
Optimization of growth-coupled enrichment. Growth was measured by seeding cultures at OD600 0.05 and monitoring cell density over time. Initial experiments used a base nitrogen-deficient minimal media (MM^N-) (33.7 mM Na2HPO4, 22 mM KH2PO4, 8.55 mM NaCl, 1 mM MgSO4, 0.1 mM CaCl2), 10 μM FeSO4, 0.4% (v/v) glycerol, 10 μg/mL thiamine, 20 μM IPTG, 12.5 μg/mL chloramphenicol, pH 7.4) that was supplemented with 9.35 mM phe (MM^phe,init) or 9.35 mM NH4Cl) Variable conditions were changed across the parameters outlined in FIG. 2, as well as moving to a more favorable strain for growth in minimal media. […]

Row | Structure (SMILES) | KM (fold higher than parent) [1] | kcat (increase over parental AvPAL*) [1] | catalytic efficiency (relative to AvPAL*) ([2]; compared to AvPAL*) | kcat (increase over parental AvPAL*) ([2]; relative to parental AvPAL*, phe 35 μM to 17.5 mM, FIG. 4a) | growth of cells supplemented with tCA (E. coli)
1 | N[C@@H](Cc1ccccc1)C(=O)O [phe, phenylalanine] | ~2.5 × | 70-80% | improved catalytic efficiency | 70-80% | 
2 | O=C(O)/C=C/c1ccccc1 [tCA, trans-cinnamic acid] |  |  |  |  | impaired growth
